Assay results published in patent US20260256921A1, “BIFUNCTIONAL MOLECULES TO TARGET DEGRADATION OF TUMOR NECROSIS FACTOR” (Biohaven Therapeutics Ltd., priority 2023, published 2026).

Columns and labels:
[1] = target: T1, Biotinylated Human TNF-α Protein (active trimer) (Homo sapiens, UniProt P01375); assay: Octet (BLI) binding to TNF-α; conditions: 1:1 binding model, N.B. = No Binding
T1 construct: purchased ACROBiosystems TNA-H82E3
Experimental: Protocol. The binding to IL-17A was measured by Bio-Layer Interferometry (BLI) using the Sartorius Octet 96e platform (Goettingen, Germany). The binding assay was performed using Streptavidin (SA) Dip and Read Biosensors (Sartorius Catalog #18-5019; Goettingen, Germany) in OptiPlate-96F, Black, 96-well, Pinch bar design, plates (Perkin Elmer Catalog #6005270; Waltham, MA, USA) with the following steps: (1) 60 seconds of baseline; (2) 600 seconds of loading with 50 nM TNF-α (Biotinylated Human TNF-α Protein, His, Avitag (active trimer); ACROBiosystems Catalog #TNA-H82E3; Newark, DE, USA); (3) 60 seconds of baseline; (4) 120 seconds of quenching with 50 μg/ml of Biocytin (Thermo Fisher Catalog #B1592; Waltham, MA, USA); (5) 60 seconds of baseline; (6) 180 seconds of association with a dilution series of ligand consisting of seven concentrations. The eighth tip in the column was run in Assay Buffer (Phosphate Buffered Saline (PBS; Gibco Catalog #10010; Pottstown, PA, USA)+0.05% Tween 20 (v/v) (Fisher BioReagents Catalog BP337-500; Pittsburgh, PA, USA)+0.1% BSA (w/v) (Rockland Catalog #BSA-50; Pottstown, PA, USA)) to serve as a reference sensor, the signal of which was subtracted from the sample sensors. (7) 180 seconds of dissociation in Assay Buffer.
(§1) Results. Data analysis was done using the Octet Data Analysis HT software (Sartorius, Goettingen, Germany). Processed data was globally fit to a 1:1 binding model for determination of the equilibrium dissociation constant (KD).

human TNF-α = human TNF-α (Homo sapiens, UniProt P01375); assay: TNF-α functional assay (hHEK-TNF-α SEAP reporter cells); format: cell-based; set-up: purchased ACROBiosystems TNA-H4211; conditions: hHEK-TNF-α cells, SEAP readout, TNF-α added at EC80 (1.034 pM), 18-24 hours; read-out: TNF-α Function IC50
Text: Human HEK TNF-αcells (hHEK-TNF-α cells; InvivoGen Catalog #hkb-tnfdmyd; San Diego, CA, USA) are human embryonic kidney HEK293 cells that are stably transfected with the reporter gene, secreted alkaline phosphatase (SEAP). The hHEK-TNF-α cells allow for the detection of bioactive human and murine TNF-α via the activation of the NF-kB-inducible promoter and subsequent production of SEAP. Bioactivity of commercial human TNF-α protein (ActiveMax® Human TNF-α Protein, Tag Free, Low Endotoxin; available by ACROBiosystems Catalog #TNA-H4211; Newark, DE, USA) was determined in this reporter system.
Test molecules were dissolved in 100% DMSO and serially diluted by either 3-fold serial dilution or 4-fold serial dilution. […] TNF-α protein was added at the previously determined ECso. Plates containing cells, test molecules, and cytokine were incubated overnight for 18-24 hours at 37° C., 5% CO2.
The level of SEAP in the supernatant of each well was quantified using the Quanti Blue™ Solution (InvivoGen Catalog #rep-qba2; San Diego, CA, USA), a reagent with a colorimetric change in the presence of SEAP. To perform the Quanti-Blue assay: 20 L of the sample supernatant after the overnight 18-24 hour incubation was added to 180 L of Quanti Blue™ Reagent and incubated for 45 minutes at 37° C. […] Inhibition of TNF-α signaling was calculated utilizing GraphPad Prism (San Diego, CA, USA).

[2] = target: T2, native human ASGPR protein (Homo sapiens, UniProt P07306); assay: Octet (BLI) binding to ASGPR protein; conditions: 1:1 binding model
T2 sequence (P07306 1-291): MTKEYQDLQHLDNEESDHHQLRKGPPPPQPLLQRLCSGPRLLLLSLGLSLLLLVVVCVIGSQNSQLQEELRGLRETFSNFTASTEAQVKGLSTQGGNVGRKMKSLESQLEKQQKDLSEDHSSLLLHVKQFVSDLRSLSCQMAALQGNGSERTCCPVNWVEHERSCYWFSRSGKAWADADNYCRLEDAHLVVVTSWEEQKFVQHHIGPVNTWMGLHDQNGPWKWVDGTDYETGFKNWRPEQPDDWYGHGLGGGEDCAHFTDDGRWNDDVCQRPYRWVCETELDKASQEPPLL
Experimental: Protocol. The binding to native human ASGPR protein was measured by Bio-Layer Interferometry (BLI) using the Sartorius Octet 96e platform (Goettingen, Germany). The binding assay was performed using the Ni-NTA (NTA) Dip and Read Biosensors (Sartorius Catalog #18-5101; Goettingen, Germany) in OptiPlate-96F, Black, 96-well, Pinch bar design, plates (Perkin Elmer Catalog #6005270; Waltham, MA, USA) with the following steps: (1) 60 seconds of baseline in Assay Buffer (PBS (Gibco Catalog #10010; Pottstown, PA, USA)+0.05% Tween 20 (v/v) (Fisher BioReagents Catalog BP337-500; Pittsburgh, PA, USA)+0.1% BSA (w/v) (Rockland Catalog #BSA-50; Pottstown, PA, USA) +1 mM CaCl2; Sigma Catalog #21115; Burlington, MA, USA); (2) 600 seconds of loading with 100 nM ASGPR protein; (3) 60 seconds of baseline; (4) 180 seconds of association with a dilution series of ligand consisting of seven concentrations. The eighth tip in the column was run in Assay Buffer to serve as a reference sensor, the signal of which was subtracted from the sample sensors. (5) 180 seconds of dissociation in Assay Buffer.
as §1

T1 sequence (P01375 77-233 limits assumed): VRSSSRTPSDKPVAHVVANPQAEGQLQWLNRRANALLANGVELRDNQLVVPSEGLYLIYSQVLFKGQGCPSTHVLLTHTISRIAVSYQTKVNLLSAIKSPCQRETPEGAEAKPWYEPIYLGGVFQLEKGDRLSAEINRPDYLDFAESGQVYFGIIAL
Chain of human TNF-α (P01375 77-233 limits assumed): as above

| Compound | Octet Kd TNF-α [1] | IC50 (human TNF-α) [µM] | Kd [2] [µM] | Octet Kd ASGPR [2] |
| --- | --- | --- | --- | --- |
| CCC(=O)NC1COC(COCCOCCOCCOCCn2cc(COCC(COCc3cn(CCOCCOCCOCCOCC4OCC(NC(=O)CC)C(O)C4O)nn3)(COCc3cn(CCOCCOCCOCCOCC4OCC(NC(=O)CC)C(O)C4O)nn3)NC(=O)CNC(=O)CCC(=O)N3CCN(Cc4ccc(-c5c[nH]c6ccncc56)c(OCCc5ccc(-c6cccc7ccncc67)cc5)c4)CC3)nn2)C(O)C1O (stereo not drawn) [Compound 104] | N.B. | 1 | 0.001 |  |
| CCC(=O)NC1COC(COCCOCCOCCOCCn2cc(COCCNC(=O)CNC(=O)CCOCCOCCOCCOCCOCCOCCC(=O)N3CCN(Cc4ccc(-c5c[nH]c6ccncc56)c(OCCc5ccc(-c6cccc7ccncc67)cc5)c4)CC3)nn2)C(O)C1O (stereo not drawn) [Compound 105] | N.B. | 0.334 |  | weak |

The remaining lines, values ahead:

| Octet Kd TNF-α [1] | IC50 (human TNF-α) [µM] | Kd [2] [µM] | Octet Kd ASGPR [2] | Compound |
| --- | --- | --- | --- | --- |
| N.B. | > 10000 | 0.00213 |  | CCC(=O)NC1COC(COCCOCCOCCOCCn2cc(COCC(COCc3cn(CCOCCOCCOCCOCC4OCC(NC(=O)CC)C(O)C4O)nn3)(COCc3cn(CCOCCOCCOCCOCC4OCC(NC(=O)CC)C(O)C4O)nn3)NC(=O)CNC(=O)CCOCCOCCC(=O)N3CCN(Cc4ccc(-c5c[nH]c6ccncc56)c(OCCc5ccc(-c6cccc7ccncc67)cc5)c4)CC3)nn2)C(O)C1O (stereo not drawn) [Compound 103] |
| N.B. | 0.356 | > 1 |  | CCC(=O)N[C@H]1CO[C@H](COCCOCCOCCOCCn2cc(COCCNC(=O)CNC(=O)CCC(=O)N3CCN(Cc4ccc(-c5c[nH]c6ccncc56)c(OCCc5ccc(-c6cccc7ccncc67)cc5)c4)CC3)nn2)[C@H](O)[C@@H]1O [Compound 106] |
| N.B. | 0.319 | 0.963 |  | CCC(=O)N[C@H]1CO[C@H](COCCOCCOCCOCCn2cc(COCCNC(=O)CNC(=O)CCOCCOCCC(=O)N3CCN(Cc4ccc(-c5c[nH]c6ccncc56)c(OCCc5ccc(-c6cccc7ccncc67)cc5)c4)CC3)nn2)[C@H](O)[C@@H]1O [Compound 107] |
